Ki data for two compounds are collected here from BindingDB's records for doi:10.1021/jm800669s (Abbott Laboratories, 2008).

The target of the test is Bcl-2-like protein 1 (Bcl-XL) (Homo sapiens) (UniProt Q07817). Briefly: Displacement of fluorescein labeled BAD peptide from Bcl-XL by fluorescence polarization assay. Background: Polarisation of emitted light reports the rotation of a fluorescent probe.
Sequence of Bcl-2-like protein 1 (Bcl-XL) (Homo sapiens) (Q07817 whole entry, looked up): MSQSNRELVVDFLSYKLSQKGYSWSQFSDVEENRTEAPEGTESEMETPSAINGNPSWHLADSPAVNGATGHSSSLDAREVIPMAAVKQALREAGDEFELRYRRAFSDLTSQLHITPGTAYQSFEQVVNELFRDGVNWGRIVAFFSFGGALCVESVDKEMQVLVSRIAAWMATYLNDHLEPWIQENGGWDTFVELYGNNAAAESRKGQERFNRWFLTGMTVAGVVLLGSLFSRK

Consider `CN(C)CC[C@H](CSc1ccccc1)Nc1ccc(S(=O)(=O)NC(=O)c2ccc(N3CCN(CC4=C(c5ccc(Cl)cc5)CCC(C)(C)C4)CC3)cc2)cc1[N+](=O)[O-]` [(R)-4-(4-((2-(4-Chlorophenyl)-5,5-dimethylcyclohex-1-enyl)methyl)piperazin-1-yl)-N-(4-(4-(dimethylamino)-1-(phenylthio)butan-2-ylamino)-3-nitrophenylsulfonyl)benzamide], for which the Ki (commonly the equilibrium dissociation constant of an inhibitor or competing ligand from its target) was found to be 1.4 nM.

In turn, `CN(C)CC[C@H](CSc1ccccc1)Nc1ccc(S(=O)(=O)NC(=O)c2ccc(N3CCN(Cc4ccccc4-c4ccc(Cl)cc4)CC3)cc2)cc1` [(R)-4-(4-((4'-Chlorobiphenyl-2-yl)methyl)piperazin-1-yl)-N-(4-(4-(dimethylamino)-1-(phenylthio)butan-2-ylamino)phenylsulfonyl)benzamide] displayed a Ki of 14 nM.
